The nature of the data set: gradient 5% acetonitrile 3 min, to 50% in 2 min, to 85% in 15 min, held 3 min, 100 µL/min. To be noted: column: Zorbax Extend-C18 2.1 x 50 mm; eluents: water / acetonitrile, 0.1% formic acid. The essentials:
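In both positive and negative ionization mode, a quadrupole time-of-flight mass spectrometer coupled to HPLC analyzed pure standards run in mixtures of ~100 molecules. The Zorbax Extend-C18 column (2.1 × 50 mm, 1.8 μm) was operated at 100 μL/min with water and acetonitrile, each containing 0.1% formic acid. The dead volume was 40 μL and the dwell volume 900 μL. Retention time came from adduct peaks that were computationally picked and individually inspected by hand.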
As for `COCc1nn(CC2CC2)c2c1CN(C(=O)Cc1ccccc1)CC2`, the RP-LC retention time was 732 s.
The molecule `Cc1ccc(-n2cc3c(N4CCCC(C(=O)NCc5ccc(C(C)C)cc5)C4)ncnc3n2)cc1` (stereo not given) showed an RP-LC retention time of 836 s.
As for `CNC(=O)c1cc(C)nc2ccc(Cl)cc12`, the figure is 607 s.
Consider `COc1ccc2[nH]cc(CCN3CC(C(=O)Nc4ccccc4)CC3=O)c2c1` (stereo not given), for which the RP-LC retention time is 748 s.
`CCCCS(=O)(=O)NCCc1noc(-c2ccccc2)n1`: the RP-LC retention time was found to be 615 s.
As for `CN(Cc1nc2ccccc2n1CC(=O)N1CCOCC1)C(=O)c1ccco1`, the figure is 587 s; as for `C=CCn1c(=O)c2ccccc2n(Cc2nc(-c3ccc(CC)cc3)no2)c1=O`, 1160 s.
For `CCn1ccc(-c2nc(-c3cccc(-c4csc(C5CC5)n4)c3)no2)n1` the value was 1220 s.
`Cc1ccc(C)c(Nc2nc(-c3ccccc3)cs2)c1` showed an RP-LC retention time of 1200 s.
For `CCCCCCCCCOc1ccc2[nH]cc(CCN)c2c1` the value was 996 s; for `COCCN1C(=O)[C@H]2CN(Cc3cc(OC)c(OC)c(OC)c3)C[C@H]2C1=O`, 578 s; for `O=C1NC2(CCN(C(=O)c3ccccc3Cl)CC2)N=C1c1cccc(F)c1`, 776 s.
Take `CCOc1ccc(NC(=O)Cn2c(=O)cc(-c3nc(C(C)C)no3)c3ccccc32)cc1`: the RP-LC retention time was found to be 1030 s.
`CCOC(=O)c1c(C)oc2ncnc(NCCN(C)Cc3ccccc3)c12` came in with an RP-LC retention time of 688 s.
With `COc1ccc(Cl)cc1N(C)C(=O)C1CCCN(c2ncnc3c2nc2n3CCCCC2)C1` (stereo not given), the RP-LC retention time was found to be 871 s.
As for `Cc1oc(-c2[nH]ncc2C(=O)N(C)C)cc1S(=O)(=O)Nc1cccc(Cl)c1C`, the figure is 725 s; as for `O=C(Cn1nc(C(=O)N2CCCC2)c2ccccc21)Nc1cccc(C(F)(F)F)c1`, 912 s; as for `Cc1cc(N2CCN(S(=O)(=O)c3ccc(C)c(C)c3)CC2)nc(NC2CCCCC2)n1`, 876 s.
Molecule `O=C(c1ccc(Cl)cc1)N1CCCCC1CCN1CCOCC1` (stereo not given) gave an RP-LC retention time of 637 s.
For `CC(C)N1CCn2c(nc3cc(C(=O)NCc4ccccc4C(F)(F)F)ccc32)C1=O` the value was 768 s.
Take `COc1cc(Cl)c(C)cc1Nc1c(C(=O)N2CCC(C)CC2)cnc2nc(C)ccc12`: the RP-LC retention time is 706 s.
As for `CCOC(=O)c1sc(NC(=O)c2ccco2)nc1-c1ccccc1`, the figure is 899 s; as for `CCOc1cccc(-c2noc(Cn3ccn(-c4ccc(Cl)cc4)c(=O)c3=O)n2)c1`, 895 s.
Take `Cc1ccc(S(=O)(=O)N2CCc3nc[nH]c3C2)cc1Cl`: the RP-LC retention time amounted to 642 s.
Molecule `NC(=O)CNC(=O)c1nc(-c2ccsc2)nc2c1OCCO2` had an RP-LC retention time of 613 s.
`CC(NC(=O)c1cccs1)C(=O)Nc1nc2ccccc2[nH]1` (stereo not given): the RP-LC retention time amounted to 612 s.
With `CCCCNC(=O)CCC1CCN(c2cc(NCCC)ncn2)CC1`, the RP-LC retention time turned out to be 658 s.
For `COc1nn(C)cc1C(=O)NCc1n[nH]c(=O)c2ccccc12` the value was 573 s; for `Cc1ccc(NC(=O)Cn2c(=O)nc(N3CCC(C)CC3)c3ccccc32)cc1C`, 909 s.
As for `CCc1noc(C2CCCCN2Cc2cc(F)ccc2F)n1` (stereo not given), the figure is 939 s.
Molecule `Cc1ccc(-c2noc(Cn3ncn4nc(-c5cccs5)cc4c3=O)n2)cc1` yielded an RP-LC retention time of 1100 s.
Molecule `Cc1nnc(-c2c(S(=O)(=O)NC3CCCCC3)c(C)n(C)c2C)o1` returned an RP-LC retention time of 814 s.
Consider `CC1(C(=O)NC2CCCCCCC2)CN(S(C)(=O)=O)CC(=O)N1c1ccc(F)cc1F` (stereo not given), for which the RP-LC retention time is 952 s.
As for `CCN1C(=O)c2ccccc2Oc2ccc(C(=O)NCc3ccccc3OC)cc21`, the RP-LC retention time is 917 s.
In turn, `Cn1cnnc1-c1nn(C)c2c1CN(C(=O)c1n[nH]c3c1CCCCCC3)CC2` showed an RP-LC retention time of 650 s.
For `CSc1ccc(CNC(=O)CCc2nnc3c4cc(-c5ccccc5)nn4ccn23)cc1` the value was 780 s; for `O=C(c1ccccc1)N1CCC(n2c(-c3ccoc3)nc3cccnc32)C1` (stereo not given), 695 s.
As for `CCOC(=O)c1[nH]c(C)c(CCC(=O)N2CCC(C(=O)NCCCN3CCCCC3)CC2)c1C`, the figure is 607 s; as for `CCOC(=O)c1ccc(NC(=O)Nc2c(-c3ccncc3)nc3ccccn23)cc1`, 631 s; as for `CC1Oc2ccc(-c3csc(NS(C)(=O)=O)n3)cc2NC1=O` (stereo not given), 609 s.
As for `CCCCC(=O)N1CCc2c(c(C(=O)N3CCCC(C(=O)Nc4ccccc4C)C3)nn2C)C1` (stereo not given), the figure is 797 s.
As for `COc1cc(-c2noc(CCn3nc(-c4ccc(Cl)cc4)ccc3=O)n2)cc(OC)c1OC`, the RP-LC retention time is 974 s.
As for `Cc1ccc(CNC(=O)c2cccc3c2CCN3C(=O)c2ccc(F)cc2)o1`, the figure is 889 s; as for `COC(=O)c1ncn2c1C(=O)N(C1CC1)C(C)(C(=O)NCc1cccc(C)c1)C2` (stereo not given), 658 s.
For `CSc1ccc(CNC(=O)c2ccc3nc(CCc4ccc(NC(C)=O)cc4)[nH]c3c2)cc1` the value was 663 s; for `CCOC(=O)COc1cc(-c2ccc(C)cc2)nc2ccc(NC(=O)C3CCCC3)cc12`, 854 s.
In turn, `Cc1ccc(NC(=O)C2CCCN(c3ccc4cc(S(=O)(=O)N5CCCCC5)ccc4n3)C2)cc1` (stereo not given) came in with an RP-LC retention time of 917 s.
For `CC1CCN(C(=O)c2cn(-c3ccc(S(=O)(=O)N4CCCC(C)C4)cn3)cn2)CC1` (stereo not given) the value was 954 s; for `CN1C(=O)COc2cc(-c3noc(C(=O)NCCCN4CCCC4)n3)ccc21`, 604 s.
Molecule `Cc1cccn2c(Nc3ccc4c(c3)OCCO4)c(-c3ccc(N4CCOCC4)cc3)nc12` yielded an RP-LC retention time of 683 s.
As for `COC(=O)C1=C(C(=O)OC)SC2(S1)C(C(=O)OC)=C(C(=O)OC)Sc1c2ssc1=O`, the figure is 977 s; as for `CCCc1ccc(S(=O)(=O)N(C)CC2CCOCC2)cc1`, 1020 s; as for `CCCCNC(=O)C1CCN(C(=O)c2cc3ccsc3n2Cc2ccc(Cl)cc2)CC1`, 1010 s.
For `COc1ccc2c(c1O)[C@]13CCN(C)[C@H](C2)[C@@H]1CCC(=O)C3` the value was 622 s.
Molecule `CCOC(=O)c1c(C)[nH]c(C(=O)N2CCC(CC(=O)NC(C)C)CC2)c1C` had an RP-LC retention time of 683 s.
As for `O=C(Nc1ccc(N2CCN(C3CCCC3)C2=O)nc1)c1ccccc1`, the figure is 817 s.
For `CCC(C)C(NC(=O)c1ccc(F)cc1)C(=O)Nc1nc2ccccc2[nH]1` (stereo not given) the value was 746 s; for `Cc1ccc(CNC(=O)c2c(C)sc3ccn(CC(C)C)c(=O)c23)cc1`, 999 s; for `CC(=O)Nc1ccc(C(=O)N2CCN(c3cc(-c4cccs4)[nH]n3)CC2)cc1`, 641 s.
On to `COc1cccc(CC(=O)Nc2ccc3c(c2)Sc2ncccc2C(=O)N3C)c1`, for which the RP-LC retention time is 762 s.
Regarding `CCOc1nc2ccccc2nc1N1CCCC(C(=O)NCc2ccccc2Cl)C1` (stereo not given), the RP-LC retention time came out at 1220 s.
Take `CCCCN(C)C(=O)CC1Sc2ncccc2N(CC(C)C)C1=O` (stereo not given): the RP-LC retention time stood at 876 s.
For `COCCOc1cc(=O)n2c(c1C(=O)NC1CCC1)CCOCC2` the value was 575 s.
Take `COc1ccccc1CN1C[C@@H]2C(=O)N(CCCN3CCCC3=O)C(=O)[C@@H]2C1`: the RP-LC retention time came to 586 s.
Molecule `CCOC(=O)c1sc(NC(=O)c2ccc(Br)cc2F)nc1C` came in with an RP-LC retention time of 986 s.
As for `Cc1ccc(-c2ncc(NC(=O)c3cccs3)cn2)cc1`, the figure is 982 s.
For `Cc1cc(C)c(NC(=O)C2CCN(S(=O)(=O)c3c(C)nn(-c4ccccc4)c3C)CC2)c(C)c1` the value was 1010 s; for `O=C(NCC1CCCO1)c1cn(-c2ccccc2)nc1-c1ccccc1` (stereo not given), 916 s; for `O=c1cc(CSc2nc(NCc3ccc4c(c3)OCO4)c3ccccc3n2)nc2ccccn12`, 635 s.
As for `O=S(=O)(Cc1ccccc1)N1CCC2(CCCCO2)CC1`, the figure is 868 s; as for `COCCn1cc2c3c(cccc31)CN(C(=O)NCCC(C)C)CC2`, 912 s.
Molecule `Cc1ccc(-c2noc(-c3cccc(S(=O)(=O)NCCN4CCC(C)CC4)c3)n2)cc1` showed an RP-LC retention time of 831 s.
For `O=C(O)c1ccc(NCc2nc3ccccc3[nH]2)cc1` the value was 896 s; for `CCOc1ccc(-c2cc3c(=O)n(Cc4nc(-c5ccc(F)c(Cl)c5)no4)ncn3n2)cc1`, 982 s.
On to `CC1CCN(S(=O)(=O)c2ccc3nn(CC(=O)OC(C)C)c(=O)n3c2)CC1`, for which the RP-LC retention time stood at 929 s.
`CO[C@H]1CN(C2CCN(S(=O)(=O)c3cccc4cccnc34)CC2)[C@H]1c1cccnc1` came in with an RP-LC retention time of 605 s.
For `O=C1NC2(CCN(C(=O)NCc3ccccc3)CC2)Oc2ccccc21` the value was 963 s; for `Nc1nc(CN2CCN(c3ncccn3)CC2)nc(N2CCCCC2)n1`, 611 s; for `Cc1c(Cl)cccc1-n1ccn2cc(-c3ccc(F)cc3)nc2c1=O`, 896 s.
In turn, `CCOC(=O)C1=C(CN(C)Cc2ccccc2)NC(=O)NC1c1ccc(F)cc1` (stereo not given) yielded an RP-LC retention time of 663 s.

These data come from the METLIN SMRT retention time set (Domingo-Almenara et al. 2019).
